Calls of active or inactive are those of the source.
What was measured:
[1] = biological target: Peroxisome proliferator-activated receptor gamma/Nuclear receptor coactivator 1 (Homo sapiens, UniProt P37231); assay: TR-FRET dose response biochemical High Throughput Screening assay for agonists of the steroid receptor coactivator 1 (SRC-1) recruitment by the peroxisome proliferator-activated receptor gamma (PPAR gamma): non-selective agonists. [Related pubchem assays (depositor defined):AID1300, AID1808, AID504735, AID631]; type: protein assay
[2] = biological target: Peroxisome proliferator-activated receptor gamma/Nuclear receptor coactivator 2 (Homo sapiens, UniProt P37231); assay: (§1) TR-FRET dose response biochemical High Throughput Screening assay for agonists of the steroid receptor coactivator 2 (SRC-2) recruitment by the peroxisome proliferator-activated receptor gamma (PPAR gamma): non-selective agonists. [Related pubchem assays: 1297, 1032 ]; type: functional
[3] = biological target: Peroxisome proliferator-activated receptor gamma/Nuclear receptor coactivator 3 (Homo sapiens, UniProt P37231); assay: as §1, with “3 (SRC-3)” for “2 (SRC-2)”, “1301 (Confirmation screen.), 1048 (Primary screen.)]” for “1297, 1032 ]”; type: functional
[4] = biological target: T1, Hexokinase HKDC1 (Homo sapiens, UniProt Q2TB90); assay: HKDC1 hexokinase activators, dose response, biochemical, W721R variant (AID 504730); type: functional
T1 sequence (Q2TB90 whole entry): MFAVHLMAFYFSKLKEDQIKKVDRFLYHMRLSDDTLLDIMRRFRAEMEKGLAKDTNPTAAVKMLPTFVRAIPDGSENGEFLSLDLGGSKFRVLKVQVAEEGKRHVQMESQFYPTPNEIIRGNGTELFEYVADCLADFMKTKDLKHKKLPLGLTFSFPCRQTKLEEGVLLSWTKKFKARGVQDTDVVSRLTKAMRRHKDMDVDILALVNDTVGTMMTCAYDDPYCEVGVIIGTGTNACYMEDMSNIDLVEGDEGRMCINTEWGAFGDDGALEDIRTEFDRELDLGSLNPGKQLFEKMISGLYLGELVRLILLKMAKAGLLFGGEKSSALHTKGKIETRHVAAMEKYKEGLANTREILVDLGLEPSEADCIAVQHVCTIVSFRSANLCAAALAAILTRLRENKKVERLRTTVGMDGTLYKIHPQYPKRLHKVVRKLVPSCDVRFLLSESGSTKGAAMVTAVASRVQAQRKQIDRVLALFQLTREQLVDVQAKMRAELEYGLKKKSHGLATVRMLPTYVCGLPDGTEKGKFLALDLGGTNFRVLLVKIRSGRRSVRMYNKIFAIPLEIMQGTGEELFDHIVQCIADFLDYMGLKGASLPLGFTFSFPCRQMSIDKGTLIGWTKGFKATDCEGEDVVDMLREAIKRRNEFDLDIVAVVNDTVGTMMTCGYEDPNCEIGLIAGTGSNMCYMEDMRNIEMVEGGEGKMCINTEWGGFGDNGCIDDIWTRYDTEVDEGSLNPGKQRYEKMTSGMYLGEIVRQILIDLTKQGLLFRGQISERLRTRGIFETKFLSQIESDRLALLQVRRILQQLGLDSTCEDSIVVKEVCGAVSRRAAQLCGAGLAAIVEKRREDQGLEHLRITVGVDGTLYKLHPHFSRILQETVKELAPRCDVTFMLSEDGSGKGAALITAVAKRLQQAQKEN

[5] = biological target: T2, Hexokinase-1 (Homo sapiens, UniProt P19367); assay: hexokinase 1 activators, dose response, selectivity assay for HKDC1 activator project, biochemical (AID 504762); type: functional
T2 sequence (P19367 whole entry): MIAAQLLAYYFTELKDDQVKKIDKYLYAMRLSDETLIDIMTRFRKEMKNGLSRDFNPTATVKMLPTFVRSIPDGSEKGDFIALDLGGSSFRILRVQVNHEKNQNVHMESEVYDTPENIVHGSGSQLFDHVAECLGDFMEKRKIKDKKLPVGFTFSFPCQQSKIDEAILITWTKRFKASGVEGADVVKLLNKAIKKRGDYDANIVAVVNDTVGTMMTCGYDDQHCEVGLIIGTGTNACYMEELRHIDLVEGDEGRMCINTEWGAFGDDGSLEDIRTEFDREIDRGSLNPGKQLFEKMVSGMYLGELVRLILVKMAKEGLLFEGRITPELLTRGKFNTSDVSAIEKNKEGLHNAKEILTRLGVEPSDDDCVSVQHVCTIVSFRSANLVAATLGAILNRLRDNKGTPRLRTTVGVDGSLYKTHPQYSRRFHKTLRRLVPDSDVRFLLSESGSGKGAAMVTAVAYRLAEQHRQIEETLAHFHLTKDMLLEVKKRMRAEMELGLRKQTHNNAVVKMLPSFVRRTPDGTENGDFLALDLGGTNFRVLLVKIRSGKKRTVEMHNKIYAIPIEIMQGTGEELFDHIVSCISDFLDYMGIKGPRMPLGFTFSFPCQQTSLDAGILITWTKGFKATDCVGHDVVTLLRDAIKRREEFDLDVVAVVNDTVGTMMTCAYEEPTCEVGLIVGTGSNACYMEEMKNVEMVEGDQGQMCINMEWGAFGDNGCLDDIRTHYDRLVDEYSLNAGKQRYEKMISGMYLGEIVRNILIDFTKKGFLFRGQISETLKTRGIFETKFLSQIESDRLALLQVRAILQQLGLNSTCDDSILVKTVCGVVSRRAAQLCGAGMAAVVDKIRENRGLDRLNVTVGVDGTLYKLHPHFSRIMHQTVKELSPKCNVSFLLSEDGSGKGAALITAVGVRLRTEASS

[6] = biological target: G-protein coupled receptor 55 (Homo sapiens, UniProt Q9Y2T6); assay: SAR Analysis of Selective Antagonists of GPR55 using an Image-Based Assay - Set 4. [Related pubchem assays (depositor defined):AID2013, AID2026]; type: functional;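 further: antagonism of response to 5 µM lysophosphatidylinositol agonist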
[7] = biological target: T3, Cannabinoid receptor 1 (Homo sapiens, UniProt P21554); assay: SAR analysis of antagonists of the Cannabinoid Receptor 1 using an Image-Based Assay - Set 4. [Related pubchem assays (depositor defined):AID2013, AID2026]; type: functional
[8] = biological target: T4, G-protein coupled receptor 35 (Homo sapiens, UniProt Q9HC97); assay: SAR analysis of Antagonists of the GPR35 Receptor using an Image-Based Assay - Set 6. [Related pubchem assays (depositor defined):AID2013, AID2026]; type: functional
[9] = biological target: T5, Probable nicotinate-nucleotide adenylyltransferase (Staphylococcus aureus (strain N315), UniProt P65502); type: functional, Staphylococcus aureus subsp. aureus N315;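 on IC50 Mean: confirmatory dose-response retesting of NadD inhibitor hits first found in an ultra-high-throughput screen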
[10] = biological target: T6, Cannabinoid receptor 2 (Homo sapiens, UniProt P34972); assay: SAR analysis of antagonists of the Cannabinoid Receptor 2 using an Image-Based Assay - Set 3. [Related pubchem assays (depositor defined):AID2013, AID2026]; type: functional
[11] = biological target: T3, Cannabinoid receptor 1; assay: SAR analysis of agonists of the Cannabinoid Receptor 1 using an Image-Based Assay - Set 4. [Related pubchem assays (depositor defined):AID2013, AID2026]; type: functional
[12] = biological target: T5, Probable nicotinate-nucleotide adenylyltransferase; type: functional, Staphylococcus aureus subsp. aureus N315; settings: read-out: IC50_Mean
[13] = biological target: T6, Cannabinoid receptor 2; assay: SAR analysis of agonists of the Cannabinoid Receptor 2 using an Image-Based Assay - Set 3. [Related pubchem assays (depositor defined):AID2013, AID2026]; type: functional
[14] = biological target: T4, G-protein coupled receptor 35; assay: SAR analysis of Agonists of the GPR35 Receptor using an Image-Based Assay - Set 4. [Related pubchem assays (depositor defined):AID2013, AID2026]; type: functional

T5 sequence (P65502 whole entry): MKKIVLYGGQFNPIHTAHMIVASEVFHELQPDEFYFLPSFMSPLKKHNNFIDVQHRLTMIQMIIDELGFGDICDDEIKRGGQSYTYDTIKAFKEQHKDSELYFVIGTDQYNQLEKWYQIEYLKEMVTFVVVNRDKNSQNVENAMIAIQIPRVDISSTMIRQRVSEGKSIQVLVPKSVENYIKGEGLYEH
T3 sequence (P21554 whole entry): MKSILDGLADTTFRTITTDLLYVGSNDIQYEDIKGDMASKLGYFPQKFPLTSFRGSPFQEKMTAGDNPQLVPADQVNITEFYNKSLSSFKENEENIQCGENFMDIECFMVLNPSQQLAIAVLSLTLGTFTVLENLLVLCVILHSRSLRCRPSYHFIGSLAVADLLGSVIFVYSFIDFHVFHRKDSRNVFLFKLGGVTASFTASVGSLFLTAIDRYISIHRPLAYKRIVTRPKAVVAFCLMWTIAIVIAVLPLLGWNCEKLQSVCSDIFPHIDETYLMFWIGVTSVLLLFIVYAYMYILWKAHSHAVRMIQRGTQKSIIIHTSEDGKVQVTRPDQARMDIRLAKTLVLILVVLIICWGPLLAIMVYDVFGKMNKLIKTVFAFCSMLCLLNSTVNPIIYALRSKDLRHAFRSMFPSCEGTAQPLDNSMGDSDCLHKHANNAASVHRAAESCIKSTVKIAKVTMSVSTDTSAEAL
T4 sequence (Q9HC97 whole entry): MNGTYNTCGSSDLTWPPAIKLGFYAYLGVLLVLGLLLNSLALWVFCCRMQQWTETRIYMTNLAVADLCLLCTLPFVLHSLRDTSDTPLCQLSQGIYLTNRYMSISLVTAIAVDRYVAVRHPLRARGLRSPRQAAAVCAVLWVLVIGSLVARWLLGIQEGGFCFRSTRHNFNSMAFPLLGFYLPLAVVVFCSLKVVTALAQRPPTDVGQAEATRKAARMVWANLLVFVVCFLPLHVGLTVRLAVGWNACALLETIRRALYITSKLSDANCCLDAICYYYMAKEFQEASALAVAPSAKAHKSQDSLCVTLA
T6 sequence (P34972 whole entry): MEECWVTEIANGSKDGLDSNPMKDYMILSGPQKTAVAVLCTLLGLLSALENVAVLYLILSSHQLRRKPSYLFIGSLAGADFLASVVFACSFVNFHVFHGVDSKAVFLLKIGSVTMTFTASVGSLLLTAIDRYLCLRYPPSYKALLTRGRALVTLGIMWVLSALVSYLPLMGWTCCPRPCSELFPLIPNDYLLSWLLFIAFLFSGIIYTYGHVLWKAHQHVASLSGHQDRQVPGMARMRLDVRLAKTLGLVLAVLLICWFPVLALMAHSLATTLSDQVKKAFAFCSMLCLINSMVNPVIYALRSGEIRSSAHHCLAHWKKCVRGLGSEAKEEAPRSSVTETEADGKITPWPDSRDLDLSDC
Chain of G-protein coupled receptor 55 (Q9Y2T6 whole entry): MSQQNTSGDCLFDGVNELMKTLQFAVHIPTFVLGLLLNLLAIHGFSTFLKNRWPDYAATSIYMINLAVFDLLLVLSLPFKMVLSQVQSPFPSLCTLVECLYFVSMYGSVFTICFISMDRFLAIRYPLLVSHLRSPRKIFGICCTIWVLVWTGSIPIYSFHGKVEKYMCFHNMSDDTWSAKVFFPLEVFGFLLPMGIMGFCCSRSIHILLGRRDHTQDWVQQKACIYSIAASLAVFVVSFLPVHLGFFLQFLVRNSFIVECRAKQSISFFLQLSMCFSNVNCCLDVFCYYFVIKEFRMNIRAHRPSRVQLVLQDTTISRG
Chain of Peroxisome proliferator-activated receptor gamma/Nuclear receptor coactivator 1 (P37231 whole entry): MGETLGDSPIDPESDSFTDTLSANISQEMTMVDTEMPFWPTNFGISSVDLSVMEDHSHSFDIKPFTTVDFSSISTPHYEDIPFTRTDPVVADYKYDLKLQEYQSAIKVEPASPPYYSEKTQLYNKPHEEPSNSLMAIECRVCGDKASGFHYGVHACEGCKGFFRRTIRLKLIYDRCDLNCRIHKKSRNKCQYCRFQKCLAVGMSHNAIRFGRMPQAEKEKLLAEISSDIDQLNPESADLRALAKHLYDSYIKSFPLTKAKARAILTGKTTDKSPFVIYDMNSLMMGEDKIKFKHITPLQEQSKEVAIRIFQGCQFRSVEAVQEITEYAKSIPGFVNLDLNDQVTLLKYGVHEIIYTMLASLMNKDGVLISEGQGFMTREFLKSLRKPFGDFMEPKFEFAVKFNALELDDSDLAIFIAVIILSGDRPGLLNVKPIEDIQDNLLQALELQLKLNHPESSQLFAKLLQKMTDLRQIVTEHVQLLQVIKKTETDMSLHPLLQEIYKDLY
Chain of Peroxisome proliferator-activated receptor gamma/Nuclear receptor coactivator 1 (Q15788 whole entry, further chain): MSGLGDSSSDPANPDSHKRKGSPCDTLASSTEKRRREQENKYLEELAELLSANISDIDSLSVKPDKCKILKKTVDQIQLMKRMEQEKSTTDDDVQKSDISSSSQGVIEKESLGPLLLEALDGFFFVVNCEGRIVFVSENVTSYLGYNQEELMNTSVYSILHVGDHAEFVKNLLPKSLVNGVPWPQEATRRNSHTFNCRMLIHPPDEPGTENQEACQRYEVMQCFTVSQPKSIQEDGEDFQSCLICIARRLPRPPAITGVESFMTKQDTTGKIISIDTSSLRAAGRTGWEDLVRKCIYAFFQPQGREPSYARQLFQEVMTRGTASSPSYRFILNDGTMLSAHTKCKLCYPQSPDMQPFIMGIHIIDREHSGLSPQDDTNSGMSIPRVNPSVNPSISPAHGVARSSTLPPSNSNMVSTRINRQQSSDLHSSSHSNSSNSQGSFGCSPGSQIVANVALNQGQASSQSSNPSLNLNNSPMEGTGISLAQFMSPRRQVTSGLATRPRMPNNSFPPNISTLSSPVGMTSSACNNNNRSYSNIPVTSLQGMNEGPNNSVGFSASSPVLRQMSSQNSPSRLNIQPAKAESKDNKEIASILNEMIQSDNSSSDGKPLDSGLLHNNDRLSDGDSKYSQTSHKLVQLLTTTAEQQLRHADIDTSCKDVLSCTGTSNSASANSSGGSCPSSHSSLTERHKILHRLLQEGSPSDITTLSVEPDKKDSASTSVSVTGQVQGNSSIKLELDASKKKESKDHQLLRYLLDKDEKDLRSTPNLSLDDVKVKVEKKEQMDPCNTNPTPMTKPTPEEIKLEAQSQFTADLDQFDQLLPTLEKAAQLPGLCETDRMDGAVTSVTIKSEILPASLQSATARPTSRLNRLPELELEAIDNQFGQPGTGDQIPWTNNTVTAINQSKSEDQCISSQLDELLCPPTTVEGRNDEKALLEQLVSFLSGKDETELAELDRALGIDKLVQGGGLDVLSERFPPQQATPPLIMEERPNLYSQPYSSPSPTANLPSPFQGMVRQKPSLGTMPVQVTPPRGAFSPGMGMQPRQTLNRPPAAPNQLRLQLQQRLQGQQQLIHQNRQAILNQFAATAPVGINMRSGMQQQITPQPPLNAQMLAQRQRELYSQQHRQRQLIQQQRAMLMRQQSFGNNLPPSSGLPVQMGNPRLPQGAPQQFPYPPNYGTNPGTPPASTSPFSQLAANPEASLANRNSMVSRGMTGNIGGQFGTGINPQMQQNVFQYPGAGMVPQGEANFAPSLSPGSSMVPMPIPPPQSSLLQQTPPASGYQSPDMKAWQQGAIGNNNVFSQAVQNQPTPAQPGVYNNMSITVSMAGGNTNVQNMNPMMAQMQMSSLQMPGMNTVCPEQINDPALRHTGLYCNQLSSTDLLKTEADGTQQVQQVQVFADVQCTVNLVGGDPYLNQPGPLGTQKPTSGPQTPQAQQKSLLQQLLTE

SMILES: CCCC(=O)Nc1c2c(nc3ccccc13)N(c1ccccc1)CC2
- EC50 [1]: > 79.4 µM (inactive)
- EC50 [2]: > 79.4 µM (not active)
- EC50 [3]: > 79.4 µM (not active)

SMILES: O=S(=O)(c1ccc(NC(=S)NN=C(Cc2ccccc2)Cc2ccccc2)cc1)N1CCOCC1
- EC50 [4]: 7.65 µM (active)
- EC50 [5]: > 80 µM (inactive)

SMILES: COc1ccc(-c2cc(C(=O)Nc3ccc(S(=O)(=O)Nc4onc(C)c4C)cc3)c3ccccc3n2)cc1
- IC50 [6]: 18.2 µM (inactive)
- IC50 [7]: 16.9 µM (inactive)
- IC50 [8]: > 32 µM (inactive)
- IC50 [9]: 5.33 µM (active)
- IC50 [10]: > 32 µM (inactive)
- EC50 [11]: > 32 µM (inactive)
- IC50 [12]: 17.3 µM (active)
- EC50 [13]: > 32 µM (inactive)
- EC50 [14]: > 32 µM (inactive)
